ChEMBL document CHEMBL3217547, “3-Substituted coumarins as dual inhibitors of AChE and MAO for the treatment of Alzheimer's disease” (Medchemcomm, 2012)
The source made the active and inactive calls. The calls are words filed in the database; no cut-off is given here.

How the values were obtained:
[1] = molecular target: T1, Amine oxidase [flavin-containing] A (Homo sapiens, UniProt P21397); experiment: Inhibition of recombinant human MAO-A assessed as production of hydrogen peroxide from p-tyramine after 15 mins by Amplex Red assay
T1 sequence (P21397 whole entry): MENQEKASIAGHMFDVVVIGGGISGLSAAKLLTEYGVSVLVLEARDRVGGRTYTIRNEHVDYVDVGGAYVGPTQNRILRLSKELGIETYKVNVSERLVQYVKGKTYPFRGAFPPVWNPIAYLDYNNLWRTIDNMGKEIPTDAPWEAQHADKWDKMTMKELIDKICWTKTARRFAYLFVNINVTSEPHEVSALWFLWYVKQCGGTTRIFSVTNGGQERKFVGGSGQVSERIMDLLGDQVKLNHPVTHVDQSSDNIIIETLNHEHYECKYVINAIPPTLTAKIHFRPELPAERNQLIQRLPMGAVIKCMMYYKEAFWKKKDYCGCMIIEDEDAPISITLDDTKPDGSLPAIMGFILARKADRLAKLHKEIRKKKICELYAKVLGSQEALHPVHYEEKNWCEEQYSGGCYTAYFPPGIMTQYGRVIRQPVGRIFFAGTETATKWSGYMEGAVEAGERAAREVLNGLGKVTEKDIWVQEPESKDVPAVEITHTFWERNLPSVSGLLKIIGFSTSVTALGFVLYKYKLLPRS

[2] = molecular target: T2, Amine oxidase [flavin-containing] B (Homo sapiens, UniProt P27338)
T2 sequence (P27338 whole entry): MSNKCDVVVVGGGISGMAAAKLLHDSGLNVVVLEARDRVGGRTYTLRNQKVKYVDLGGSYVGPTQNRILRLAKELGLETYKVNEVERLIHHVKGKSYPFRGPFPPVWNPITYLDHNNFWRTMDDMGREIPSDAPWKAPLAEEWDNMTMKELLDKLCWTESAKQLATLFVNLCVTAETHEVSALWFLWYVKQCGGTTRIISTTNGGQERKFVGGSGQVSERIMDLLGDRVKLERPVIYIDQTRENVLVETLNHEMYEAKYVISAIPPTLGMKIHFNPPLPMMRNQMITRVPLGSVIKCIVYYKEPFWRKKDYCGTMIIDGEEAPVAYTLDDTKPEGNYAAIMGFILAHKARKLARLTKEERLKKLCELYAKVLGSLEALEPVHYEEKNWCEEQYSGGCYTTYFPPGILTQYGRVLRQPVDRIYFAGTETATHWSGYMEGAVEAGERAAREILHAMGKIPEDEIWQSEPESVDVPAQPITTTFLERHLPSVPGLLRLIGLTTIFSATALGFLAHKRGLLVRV
Description: Inhibition of recombinant human MAO-B assessed as production of hydrogen peroxide from p-tyramine after 15 mins by Amplex Red assay

[3] = molecular target: T3, Acetylcholinesterase (Homo sapiens, UniProt P22303); experiment: Inhibition of recombinant human AChE expressed in HEK293 cells using acetylthiocholine iodide as substrate preincubated for 5 mins before substrate addition measured after 10 mins by Ellman's method
[4] = molecular target: T1, Amine oxidase [flavin-containing] A; experiment: Inhibition of recombinant human MAO-A assessed as production of hydrogen peroxide from p-tyramine up to 100 uM after 15 mins by Amplex Red assay; conditions: 0.25 h
[5] = molecular target: T3, Acetylcholinesterase; experiment: Inhibition of recombinant human AChE expressed in HEK293 cells using acetylthiocholine iodide as substrate at 100 uM preincubated for 5 mins before substrate addition measured after 10 mins by Ellman's method
[6] = molecular target: T2, Amine oxidase [flavin-containing] B; experiment: Inhibition of recombinant human MAO-B assessed as production of hydrogen peroxide from p-tyramine up to 100 uM after 15 mins by Amplex Red assay; conditions: 0.25 h
[7] = molecular target: T2, Amine oxidase [flavin-containing] B; experiment: Inhibition of recombinant human MAO-B assessed as production of hydrogen peroxide from p-tyramine at 100 uM after 15 mins by Amplex Red assay; conditions: 0.25 h

T3 sequence (P22303 whole entry): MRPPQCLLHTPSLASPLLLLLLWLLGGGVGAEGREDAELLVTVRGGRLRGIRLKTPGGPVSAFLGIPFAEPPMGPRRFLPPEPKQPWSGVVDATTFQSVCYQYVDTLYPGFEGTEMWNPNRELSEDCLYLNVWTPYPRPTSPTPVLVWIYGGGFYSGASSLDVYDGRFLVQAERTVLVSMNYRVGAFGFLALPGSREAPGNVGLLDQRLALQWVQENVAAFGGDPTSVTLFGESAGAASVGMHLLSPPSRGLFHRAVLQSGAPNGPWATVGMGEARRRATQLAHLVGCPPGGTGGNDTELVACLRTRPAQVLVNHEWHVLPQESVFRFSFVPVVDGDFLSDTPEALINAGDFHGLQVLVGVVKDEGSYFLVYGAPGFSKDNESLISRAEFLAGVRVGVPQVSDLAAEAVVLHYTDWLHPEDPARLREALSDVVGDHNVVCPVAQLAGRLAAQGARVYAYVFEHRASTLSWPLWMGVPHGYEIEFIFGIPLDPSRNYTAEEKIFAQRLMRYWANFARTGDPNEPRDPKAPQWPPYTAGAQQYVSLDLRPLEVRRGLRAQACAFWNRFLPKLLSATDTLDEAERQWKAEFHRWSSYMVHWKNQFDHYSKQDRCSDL

SMILES	IC50 [1] [µM]	IC50 [2] [µM]	IC50 [3] [µM]	inhibition (INH) [4]	inhibition [5]	inhibition (INH) [6]	inhibition at 100 µM [7] [%]
Cc1ccc(C(=O)Nc2cc3cc(C)ccc3oc2=O)cc1	46	0.17	41.4	–	–	–	–
O=C(Nc1cc2ccccc2oc1=O)c1ccccc1	–	0.76	–	Not Active	inactive	–	–
O=C(Nc1cc2ccccc2oc1=O)C1CCCCC1	–	50	–	Not Active	inactive	–	–
O=C(Nc1cc2ccccc2oc1=O)c1ccc([N+](=O)[O-])cc1	–	–	12.9	Not Active	–	Not Active	–
O=C(Nc1cc2ccccc2oc1=O)c1ccc(Cl)c(Cl)c1	–	5.95	15	Not Active	–	–	–
O=C(CCl)Nc1cc2ccccc2oc1=O	–	–	–	Not Active	inactive	Not Active	–
COc1ccc(C(=O)Nc2cc3ccccc3oc2=O)cc1	–	30.5	69.5	Not Active	–	–	–
Cc1ccc2oc(=O)c(-c3ccccc3)cc2c1	–	–	–	Not Active	inactive	–	–
O=C(CBr)Nc1cc2ccccc2oc1=O	–	–	–	Not Active	inactive	Not Active	–
O=C(Nc1cc2ccccc2oc1=O)c1ccc(Cl)cc1	–	1.95	18.7	Not Active	–	–	–
COc1ccc(C(=O)Nc2cc3ccccc3oc2=O)cc1OC	–	58.4	–	Not Active	inactive	–	–
COc1cc(C(=O)Nc2cc3ccccc3oc2=O)cc(OC)c1OC	–	72.6	–	Not Active	inactive	–	–
CC(=O)Nc1cc2ccccc2oc1=O	38.9	–	–	–	inactive	–	40
Cc1ccc(C(=O)Nc2cc3ccccc3oc2=O)cc1	–	7.96	18.4	Not Active	–	–	–
Cc1ccc(-c2cc3cc(C)ccc3oc2=O)cc1	–	–	–	Not Active	inactive	–	–
O=c1oc2ccccc2cc1-c1ccccc1	–	–	–	Not Active	inactive	–	–
